Experiments:
Assay type in all cases: in vivo, C57BL6 mice
IL-1β = assay: Level of inflammatory cytokine IL-1β; conditions: G3 to G6 (12.5-100 mg/kg), FIG. 7, equivalency to control G7
Experimental: (§1) For use in testing therapeutic effects of the agents of Examples, Comparative Examples, and Control Examples, the mice (G1 to G7) were fed with a 2.5 wt % aqueous dextran sodium sulfate (DSS) solution to induce inflammatory bowel disease therein.
(§2) Levels of IL-1β IL-6, IL-12, and TNF-α, which are representative inflammation-inducing cytokines, were measured. […] The observation results are depicted in […].

[1] = Body weight of mice pre-treated with compositions, DSS-induced colitis
Experimental: In this experiment, C57BL6 mice were employed for the following reasons. The experimental animals are widely used throughout the world and are evaluated as being suitable for validity assays. In addition, because a great amount of fundamental test data on various disease models of the animals has been accumulated, the data can be utilized in analyzing and assessing test results. When purchased from OrientBio Inc. the experimental animals weighed 18 g±20%. They were bred under a light intensity of 150˜300 Lux in the controlled condition of 12:12-h light-dark cycles, with at least 10 ventilation rounds per hour.
as §1
Weights are expressed as mean±standard deviation.
From Jan. 12, 2012, the mice were allowed to drink an aqueous DSS 2.5 wt % solution for 7 days. DSS-induced diarrhea or hematochezia caused mice in groups G2 to G7 to lose weight, as compared at the point of DSS treatment.

[2] = tested on: total antioxidant concentration; assay: Anti-oxidant activity: total antioxidant concentrations in tissues; conditions: G3 (12.5 mg/kg) compared to the DSS-treated group
From the text: as §1
Its amount was discovered to decrease at a low concentration of S-allyl-L-cysteine as in G3 and G4, with statistical significance.

IL-12 = assay: Level of inflammatory cytokine IL-12; conditions: G3 to G6 (12.5-100 mg/kg), FIG. 10, equivalency to control G7
Experimental: as §1, §2

[3] = tested on: dextran sodium sulfate (DSS)-induced colitis mouse models; assay: Pathological observation of colon by H&E staining, total pathologic score
Experimental: as §1
Colon specimens taken were fixed in a 10% formalin solution and stained with hematoxylin & eosin (H&E stain), and their images are given in FIG. 5. Further, they were evaluated through a blind test under the criteria of a total of six histopathological opinions on inflammation (inflammation, follicle aggregation, oedema, erosion/ulceration, crypt loss, and infiltration of mono- and polymorphonuclear cells), and scored. Total pathologic scores obtained by summing up scores for each items and for the six opinions are depicted in FIG. 6.

TNF-α = assay: Level of inflammatory cytokine TNF-α; conditions: G3 to G6 (12.5-100 mg/kg), FIG. 9, equivalency to control G7
Experimental: as §1, §2

COX-2 = COX-2 expression in colon tissue by immunofluorescence
Experimental: as §1
The immunofluorescence of COX-2 was performed on paraffin unstained slides of animal tissues.

[4] = tested on: dextran sodium sulfate (DSS)-induced colitis mouse models; assay: Disease Activity Index (DAI) score, DSS-induced colitis
From the text: as §1
(§3) At the end of the test, Disease Activity Index (DAI) Scores were made in consideration of the degree of hematochezia and diarrhea, and are depicted in FIG. 3. In the graph, # represents significance (p<0.0001) compared to the normal (G1), and * represents significance (p<0.05), compared to the colitis animal model.

Malondialdehyde (MDA) = assay: Anti-oxidant activity: malondialdehyde (MDA), lipid peroxidation
From the text: as §1
Malondialdehyde (MDA), accounting for the degree of lipid peroxidation, a representative marker of oxidation stress, was quantified.

IL-6 = assay: Level of inflammatory cytokine IL-6; conditions: G3 to G6 (12.5-100 mg/kg), FIG. 8, equivalency to control G7
Experimental: as §1, §2

[5] = Side effects of S-allyl-L-cysteine
From the text: Cyclosporine or prednisolone, which are […] used to treat colitis thanks to their immunosuppressive effects, are reported to have the side effect of weight gain.
The anti-inflammatory agents including mesalizine or mesalazine, NSAIDs, etc. are known to cause various side effects such as hypersensitive reactions, nausea, vomiting, headache, etc.

[6] = tested on: dextran sodium sulfate (DSS)-induced colitis mouse models; assay: Colon length from cecum to end of colon, DSS-induced colitis; conditions: G3 to G6 (12.5-100 mg/kg) compared to Comparative Example, with statistical significance, FIG. 4
From the text: as §1
After 7 days of DSS drinking, the mice were sacrificed in an ether anesthetized condition, and the colon was excised.
as §3

Q: For `C=CCSC[C@H](N)C(=O)O` [Example 1, S-allyl-L-cysteine], which “Expression level of IL-1β” value (IL-1β) is on record?
A: decreased expression levels

Q: And the “Body weight (mean ± standard deviation)” value ([1]; G3, Ex. 1 12.5 mg/kg, 2012.01.12, at the time of DSS treatment, 12.5 mg/kg)?
A: 22.1 ± 2.4 g

Q: And the “Body weight (mean ± standard deviation)” value ([1]; G3, Ex. 1 12.5 mg/kg, 2012.01.18, at autopsy after 7 days DSS 2.5 wt %, 12.5 mg/kg)?
A: 20.3 ± 2.2 g

Q: What about the “Body weight (mean ± standard deviation)” value ([1]; G4, Ex. 1 25 mg/kg, 2012.01.12, at the time of DSS treatment, 25 mg/kg) of the same molecule?
A: 22.8 ± 0.8 g

Q: What about the “Body weight (mean ± standard deviation)” value ([1]; G4, Ex. 1 25 mg/kg, 2012.01.18, at autopsy after 7 days DSS 2.5 wt %, 25 mg/kg) of the same molecule?
A: 20.5 ± 0.9 g

Q: What about the “Body weight (mean ± standard deviation)” value ([1]; G5, Ex. 1 50 mg/kg, 2012.01.12, at the time of DSS treatment, 50 mg/kg) of the same molecule?
A: 22.9 ± 1.1 g

Q: And the “Body weight (mean ± standard deviation)” value ([1]; G5, Ex. 1 50 mg/kg, 2012.01.18, at autopsy after 7 days DSS 2.5 wt %, 50 mg/kg)?
A: 21.4 ± 0.8 g

Q: And the “Body weight (mean ± standard deviation)” value ([1]; G6, Ex. 1 100 mg/kg, 2012.01.12, at the time of DSS treatment, 100 mg/kg)?
A: 22.2 ± 1.3 g

Q: And the “Body weight (mean ± standard deviation)” value ([1]; G6, Ex. 1 100 mg/kg, 2012.01.18, at autopsy after 7 days DSS 2.5 wt %, 100 mg/kg)?
A: 21.6 ± 0.7 g

Q: What about the “Total antioxidant concentration in tissues” value [2] of the same molecule?
A: increase in antioxidant concentration

Q: And the “Expression level of IL-12” value (IL-12)?
A: decreased expression levels

Q: What about the “Rehabilitation of mucosal tissues by total pathologic score” value ([3]; G3 (12.5 mg/kg), FIG. 6) of the same molecule?
A: best rehabilitation of mucosal tissues

Q: And the “Histology of intestinal mucosa tissues (H&E)” value ([3]; G3 to G6 (12.5-100 mg/kg), FIG. 5)?
A: recovered the intestinal mucosa tissues to a normal state

Q: What about the “Total pathologic score (H&E)” value ([3]; G3 to G6 (12.5-100 mg/kg), FIG. 6) of the same molecule?
A: lowered the pathologic score

Q: And the “Therapeutic effect (pathologic score) compared with control G7” value ([3]; G3 to G6 vs G7 (Control 50 mg/kg))?
A: equivalent to or higher than that of the control G7

Q: What about the “Expression level of TNF-α” value (TNF-α) of the same molecule?
A: decreased expression levels

Q: And the COX-2 expression level (COX-2; G3 (12.5 mg/kg))?
A: significantly increased

Q: What about the “COX-2 expression levels in mucosal tissues” value (COX-2; G3 to G6 (12.5-100 mg/kg), immunofluorescence, FIG. 13) of the same molecule?
A: reduced COX-2 expression levels

Q: What about the “COX-2 expression in the fascial tissue” value (COX-2; G4 to G6 (25-100 mg/kg), immunofluorescence) of the same molecule?
A: inhibited COX-2 expression even in the fascial tissue

Q: And the COX-2 expression level (COX-2; other test groups (G4 to G6, 25-100 mg/kg))?
A: significantly decrease

Q: And the “Therapeutic effects (DAI, colon length) compared with conventional agent (G7)” value ([4]; G3 to G6 (12.5-100 mg/kg) vs G7 (Control 50 mg/kg))?
A: equivalent to or higher than those of the conventional agent

Q: And the “Disease Activity Index (DAI) score” value ([4]; G3 to G6 (12.5-100 mg/kg), DSS 2.5 wt %, end of test, FIG. 3)?
A: score low in DAI

Q: And the “Amount of malondialdehyde (MDA)” value (Malondialdehyde (MDA); G3 and G4 (12.5 and 25 mg/kg), with statistical significance)?
A: decrease

Q: What about the “Level of MDA” value (Malondialdehyde (MDA); G3 to G6 (12.5-100 mg/kg), equivalency or superiority to control G7) of the same molecule?
A: decreased the level of MDA

Q: What about the “Expression level of IL-6” value (IL-6) of the same molecule?
A: decreased expression levels

Q: What about the “Side effect of weight gain” value ([5]; G3 to G6 (12.5-100 mg/kg)) of the same molecule?
A: not cause the side effect of weight gain

Q: What about the “Side effects (hypersensitive reactions, nausea, vomiting, headache, etc.)” value ([5]; G3 to G6, extended test period of 12 weeks) of the same molecule?
A: did not suffer from the side effects

Q: And the Colon length [6]?
A: recovered the colon length

Q: Which results are given for `O=C(NC(Cc1cc(=O)[nH]c2ccccc12)C(=O)O)c1ccc(Cl)cc1` (stereo not drawn) [Control, Rebamipide, reference compound]?
A: Body weight (mean ± standard deviation) ([1]; G7, Control 50 mg/kg, 2012.01.12, at the time of DSS treatment): 23.2 ± 1.2 g; Body weight (mean ± standard deviation) ([1]; G7, Control 50 mg/kg, 2012.01.18, at autopsy after 7 days DSS 2.5 wt %): 21.1 ± 0.9 g; COX-2 expression in the fascial tissue beneath the mucosal tissue (COX-2; G7 (Control 50 mg/kg), immunofluorescence): did not effectively do so; COX-2 expression in mucosal tissues (COX-2; G7 (Control 50 mg/kg), immunofluorescence, FIG. 13): inhibited COX-2 expression in mucosal tissues; Side effects (hypersensitive reactions, nausea, vomiting, headache, etc.) ([5]; control G7, extended test period of 12 weeks): side effects detected

From US20150147411A1, “COMPOSITION FOR PREVENTING OR TREATING COLITIS COMPRISING S-ALLYL-L-CYSTEINE AS ACTIVE INGREDIENT, AND MEDICAL PREPARATION COMPRISING SAME” (PHARMAKING CO., LTD., priority 2012, published 2015)
